Structures are written as SMILES. Activity calls are given as the source filed them.

Assay [1] concerns INS1. Briefly: beta cell apoptosis inhibitors, cytokine rescue, dose response, luminescence, retest (AID 449756).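 Note: cell death triggered by IL-1 beta plus TNF-alpha plus IFN-gamma mixture; protective hits raise ATP signal compared with cytokine alone wells.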 Type of assay: functional, cell-based. The note with it: Rattus norvegicus.
The target in assay [2] is Cytochrome P450 2C9 (Homo sapiens, UniProt P11712).
Cytochrome P450 2C9, sequence (P11712 whole entry): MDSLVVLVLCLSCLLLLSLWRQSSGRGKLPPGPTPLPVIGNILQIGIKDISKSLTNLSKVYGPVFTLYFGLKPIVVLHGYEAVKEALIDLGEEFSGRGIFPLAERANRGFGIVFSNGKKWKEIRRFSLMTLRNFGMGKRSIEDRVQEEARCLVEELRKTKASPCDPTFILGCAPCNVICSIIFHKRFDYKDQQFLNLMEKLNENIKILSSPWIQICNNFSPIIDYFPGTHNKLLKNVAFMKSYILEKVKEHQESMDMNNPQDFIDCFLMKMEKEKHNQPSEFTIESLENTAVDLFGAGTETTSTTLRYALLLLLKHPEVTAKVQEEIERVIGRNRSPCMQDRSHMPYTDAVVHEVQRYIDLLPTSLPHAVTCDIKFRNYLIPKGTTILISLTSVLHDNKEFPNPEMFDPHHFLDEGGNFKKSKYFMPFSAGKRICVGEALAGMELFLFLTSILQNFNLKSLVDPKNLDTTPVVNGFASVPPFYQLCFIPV
For assay [3], the target named is T1, Cytochrome P450 1A2 (Homo sapiens, UniProt P05177).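 Note: PubChem cytochrome P450 panel assay, CYP1A2 panel member.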
T1 sequence (P05177 whole entry): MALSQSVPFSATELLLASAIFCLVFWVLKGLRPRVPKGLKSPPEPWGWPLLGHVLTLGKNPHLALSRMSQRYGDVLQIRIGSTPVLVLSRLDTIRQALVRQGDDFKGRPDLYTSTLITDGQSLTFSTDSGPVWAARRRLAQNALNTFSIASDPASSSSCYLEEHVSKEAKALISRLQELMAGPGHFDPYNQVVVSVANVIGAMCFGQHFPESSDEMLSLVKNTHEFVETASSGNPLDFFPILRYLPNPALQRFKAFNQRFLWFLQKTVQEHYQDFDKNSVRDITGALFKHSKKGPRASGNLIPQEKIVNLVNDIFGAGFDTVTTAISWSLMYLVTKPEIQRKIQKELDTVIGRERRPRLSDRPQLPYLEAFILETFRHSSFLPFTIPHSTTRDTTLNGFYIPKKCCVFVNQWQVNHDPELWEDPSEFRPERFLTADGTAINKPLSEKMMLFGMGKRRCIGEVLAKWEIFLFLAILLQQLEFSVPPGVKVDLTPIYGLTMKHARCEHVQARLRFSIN

The target of assay [4] is Cytochrome P450 2C19 (Homo sapiens, UniProt P33261). As to the kind of experiment: Cytochrome panel assay with activity outcomes. Panel member name: p450-cyp2c19 Compounds with AC50 equal or less than 10 uM are considered active. Type of assay: functional. The note with it: read-out: AC50.
Cytochrome P450 2C19, sequence (P33261 whole entry): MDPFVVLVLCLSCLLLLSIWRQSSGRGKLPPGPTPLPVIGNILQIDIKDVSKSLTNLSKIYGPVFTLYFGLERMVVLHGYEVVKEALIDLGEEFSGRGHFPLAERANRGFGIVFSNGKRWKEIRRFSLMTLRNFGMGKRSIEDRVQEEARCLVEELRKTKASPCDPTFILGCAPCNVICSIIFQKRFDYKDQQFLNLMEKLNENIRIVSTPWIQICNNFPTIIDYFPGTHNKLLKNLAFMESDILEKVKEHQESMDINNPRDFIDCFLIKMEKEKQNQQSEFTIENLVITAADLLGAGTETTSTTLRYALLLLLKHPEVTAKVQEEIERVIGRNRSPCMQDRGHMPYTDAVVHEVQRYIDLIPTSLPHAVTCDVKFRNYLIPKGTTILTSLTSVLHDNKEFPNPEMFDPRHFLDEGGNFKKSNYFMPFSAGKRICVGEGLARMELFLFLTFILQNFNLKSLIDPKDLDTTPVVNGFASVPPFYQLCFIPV
Assay [5] deals with Cytochrome P450 3A4 (Homo sapiens, UniProt P08684).
Cytochrome P450 3A4, sequence (P08684 whole entry): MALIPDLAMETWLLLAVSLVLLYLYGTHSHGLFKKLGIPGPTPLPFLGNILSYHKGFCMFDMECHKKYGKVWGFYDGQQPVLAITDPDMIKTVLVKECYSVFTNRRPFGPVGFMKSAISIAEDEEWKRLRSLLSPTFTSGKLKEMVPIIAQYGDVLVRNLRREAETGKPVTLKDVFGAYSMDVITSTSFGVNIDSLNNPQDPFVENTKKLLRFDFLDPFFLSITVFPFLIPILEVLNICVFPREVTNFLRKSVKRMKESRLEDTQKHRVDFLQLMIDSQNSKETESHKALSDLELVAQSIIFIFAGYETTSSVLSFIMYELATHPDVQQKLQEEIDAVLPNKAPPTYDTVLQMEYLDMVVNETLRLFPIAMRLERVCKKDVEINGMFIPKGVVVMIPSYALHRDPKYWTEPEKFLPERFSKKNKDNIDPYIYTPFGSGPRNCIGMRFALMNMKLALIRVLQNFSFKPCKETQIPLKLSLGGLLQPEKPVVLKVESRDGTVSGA
The target of assay [6] is Cytochrome P450 2D6 (Homo sapiens, UniProt P10635).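 Note: CYP2D6 member of a cytochrome P450 panel assay.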
Cytochrome P450 2D6, sequence (P10635 whole entry): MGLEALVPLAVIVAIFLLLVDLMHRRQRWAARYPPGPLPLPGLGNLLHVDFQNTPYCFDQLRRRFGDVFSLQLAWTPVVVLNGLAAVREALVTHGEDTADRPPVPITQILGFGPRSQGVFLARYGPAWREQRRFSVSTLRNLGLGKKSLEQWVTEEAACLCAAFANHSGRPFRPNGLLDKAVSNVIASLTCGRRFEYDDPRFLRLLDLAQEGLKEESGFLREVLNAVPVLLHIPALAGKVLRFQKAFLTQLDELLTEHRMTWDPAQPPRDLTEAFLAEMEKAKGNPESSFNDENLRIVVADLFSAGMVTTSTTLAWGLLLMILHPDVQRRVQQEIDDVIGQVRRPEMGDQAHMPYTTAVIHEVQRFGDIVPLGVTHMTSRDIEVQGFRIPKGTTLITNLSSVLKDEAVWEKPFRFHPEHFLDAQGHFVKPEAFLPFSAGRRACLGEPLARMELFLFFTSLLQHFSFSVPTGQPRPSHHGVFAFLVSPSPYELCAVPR
Assay [7] can be described thus: P. falciparum Dd2 growth inhibitors, dose response, SYBR Green, cherry-picked samples (AID 1159567). Format: functional, cell-based.
A short description of assay [8]: cells. Type of assay: functional, cell-based.
Assay [9] can be described thus: cells. Type of assay: functional, cell-based. The source holds these as a separate data set.
The nature of assay [10]: inhibitors of SNCA 5'UTR-driven reporter translation, confirmation, H4 neuroglioma cells, luminescence (AID 1988). Format: functional, cell-based.
Assay [11] can be described thus: inhibitors of intracellular T. cruzi replication, confirmation, NIH3T3 host cells, beta-gal luminescence (AID 2044).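 Note: intracellular parasites grown in NIH/3T3 mouse fibroblasts as host cells; luminescent beta-galactosidase reporter signal from transgenic T. cruzi replicating inside host cells; inhibitors lower the luminescence signal.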 Format: functional, cell-based.
A short description of assay [12]: Luminescence Cell-Based Dose Response HTS to Identify Inhibitors of 5'UTR Stem-Loop Driven Prion Protein mRNA Translation in H4 Neuroglioblastoma Cells. [Related pubchem assays: 1827 (Project Summary), 1813 (Primary HTS)]. Type of assay: functional.
Assay [13] is described as follows: inhibitors of firefly luciferase expression or activity, dose response, H4 neuroglioma cells, luminescence (AID 1990). Type of assay: functional, cell-based.
Assay [14] can be described thus: cytotoxicity toward NIH3T3 fibroblasts, dose response, counter-screen, cell-based, ATP luminescence, mouse fibroblasts (AID 2010).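 Note: cells exposed to compound for about 90 hours before reading.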 Type of assay: functional. In general terms: Counterscreens check selectivity or assay interference.
Assay [15] can be described thus: HEp-2 cell cytotoxicity, dose response, cytotoxicity control for RSV inhibitor project, HTS (AID 2410). Format: functional. Conditions: human respiratory syncytial virus.
Assay [16] can be described thus: growth suppression of PTEN-null colon cells, dose response, cell-based, HCT116 PTEN knockout (AID 1047).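 Note: HCT116 colon tumor cells with PTEN knocked out; cells exposed to compound for 60 hours before readout; potency for loss of cell viability measured by luminescence.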 Format: functional.
Assay [17] in a line: Luminescence Cell-Based Dose Response HTS to Identify Activators of Luciferase Translation or Activity in H4 […] Cells. [Related pubchem assays: 1829 (Project Summary), 1814 (Primary HTS)]. Type of assay: functional.

A word on the AC50: it is the concentration giving half of the maximal activity seen. Regarding `CC(N=C(S)NC1CCCCC1)c1ccc(C(C)(C)C)cc1` (stereo unspecified), in assay [1], the AC50 is 6.14 µM (active).

`Cc1ccc(-n2c(SCC(=O)N3CCOCC3)nnc2-c2cccnc2)cc1`: the AC50 in [2] is 17.8 µM (inconclusive); in [3] it was 10 µM (inconclusive); in [4], 22.4 µM (inconclusive); in assay [5], 10 µM (inconclusive).

For `CN(C)C(=O)c1ccc(NC(=O)c2cccc(S(=O)(=O)N3CCCCCC3)c2)cc1`, the AC50 in assay [1] is > 260 µM (inactive).

On to `COc1cccc(Cn2c(=O)c(-c3ccccc3)nc3cnc(N4CCNCC4)nc32)c1`, for which the AC50 in assay [6] is 10 µM (inconclusive); in assay [3], 3.16 µM (inconclusive); in assay [4], 39.8 µM (inconclusive).

In the case of `COc1cccc(C2=NOC(C(=O)NCc3ccccn3)C2)c1` (stereo unspecified), the AC50 in [4] was 25.1 µM (inconclusive); in assay [5], 15.8 µM (inconclusive).

For the compound `CCC(=O)N1CC2(C1)CN(S(=O)(=O)c1ccccc1)[C@@H](CO)c1[nH]c3cc(OC)ccc3c12`, in assay [7], the AC50 was 5.43 µM (active).

As for `Cc1ccc(C(=O)C2C(=O)c3ccccc3C2=O)cc1`, the AC50 is 25.1 µM (inconclusive) in assay [3] and 22.4 µM (inconclusive) in [4].

With `COC(=O)[C@H](CC(C)C)N(Cc1ccccc1)S(=O)(=O)N(Cc1ccccc1)[C@@H](CC(C)C)C(=O)OC`, the AC50 in assay [1] was 13.7 µM (active).

`C[C@@H]1CN([C@@H](C)CO)C(=O)c2c(c3ccccc3n2C)-c2ccccc2CO[C@H]1CN(C)C(=O)Nc1ccccc1C(F)(F)F`: in assay [7], the AC50 is 4.33 µM (active).

A word on the EC50: it is the concentration at which the effect is half-maximal. Regarding `CCC1CCCCN1CCCNC(=O)C1CCN(c2nnc(-n3cccc3)s2)CC1` (stereo unspecified), the EC50 in assay [8] and in assay [9] was > 350 µM (not active) throughout.

`CO[C@@H]1CN(C)C(=O)c2ccc(NC(=O)c3cc(C)on3)cc2OC[C@@H](C)N(S(=O)(=O)c2cccc(C)c2)C[C@H]1C`: the AC50 in [7] was 4.07 µM (active).

Take `c1ccc(-c2csc3ncn4cnnc4c23)cc1`: the values for the AC50 in assay [2], in assay [3] and in [4] were 20 µM (inconclusive), 0.251 µM (inconclusive) and 11.2 µM (inconclusive), respectively.

Consider `Cn1c(=O)c(CCc2ccccc2)nc2cncnc21`, for which the figures for the AC50 in assay [2], in [4] and in [5] were 31.6 µM (inconclusive), 39.8 µM (inconclusive) and 15.8 µM (inconclusive), respectively.

Consider `COc1ccccc1N1CCN(Cc2c[nH]c3ccccc23)CC1`, for which the EC50 in [10] was > 120 µM (not active); in [11] it was 2.1 µM (active); in [12], 25.3 µM (active); in [13] it was > 120 µM (not active); in [14], > 60 µM (not active).

A word on the CC50: it is the concentration at which the toxic effect on the cells reaches its halfway point. Regarding `CCN(CC)C(=O)CCCOc1ccc(Cl)cc1Cl`, the CC50 in assay [15] was 22.1 µM (active). In addition, the EC50 in [16] is 137 µM (active).

Turning to `CCOc1cc(/C=N/NC(=O)c2cccnc2)ccc1OCc1ccc(C(=O)OC)o1`, the EC50 in assay [8] and in assay [9] was > 350 µM (not active) in each case.

On to `Cc1ccc(Oc2nc(-c3ccccc3)ncc2S(C)(=O)=O)cc1`, for which the AC50 was 3.16 µM (inconclusive) in assay [4] and 14.1 µM (inconclusive) in assay [5].

Turning to `Cc1ccc(-c2csc3nc(SCC(=O)N(C)C)n(Cc4ccccc4)c(=O)c23)cc1`, the concentration giving a half-maximal response (EC50) in assay [8] and in [9] was > 350 µM (not active) throughout.

Regarding `COc1ccc(CC(NC(C)=O)C(=O)NC2CCN(C(=O)Nc3ccc(Cl)cc3)CC2)cc1OC` (stereo unspecified), the EC50 in assay [8] and in assay [9] was > 350 µM (not active) in each case. In [2], the AC50 was 12.6 µM (inconclusive).

Consider `CC(C)(C)NC(=O)N1c2ccccc2Sc2ccccc21`, for which the results for the EC50 in assay [10], in assay [12] and in assay [13] were 112 µM (active), > 120 µM (not active) and 15.3 µM (active), respectively.

In the case of `Nc1c(S(=O)(=O)c2cccs2)c2nc3ccccc3nc2n1Cc1ccccc1`, the EC50 in [10] is > 120 µM (not active); in [12], > 120 µM (not active); in assay [13], 20.7 µM (active).

On to `OCc1cccc[n+]1CCc1ccccc1`, for which the EC50 in assay [10] was > 120 µM (not active); in assay [12], 48.4 µM (active); in assay [13], > 120 µM (not active).

Regarding `COc1ccc(C(=O)Nc2ccc(C(=O)NCCc3ccc(OC)c(OC)c3)cc2)cc1`, the EC50 in assay [8] and in [9] was > 350 µM (not active) throughout.

Turning to `CS(=O)(=O)Nc1cccc(-c2cc(NCc3ccccc3)ncn2)c1`, the results for the concentration at half-maximal activity (AC50) in [6] and in assay [4] were 31.6 µM (inconclusive) and 39.8 µM (inconclusive), respectively.

As to `CN1C(=O)C(=C(N)COc2ccccc2)C(=O)N(C)C1=O`, the AC50 in assay [2] was 14.1 µM (inconclusive); in [4], 15.8 µM (inconclusive).

In the case of `O=C(C1CC12CCCC2)N1CCC(CO)(Cc2ccccc2Cl)CC1` (stereo unspecified), the values for the EC50 in assay [10], in assay [12] and in assay [13] were > 120 µM (not active), 120 µM (active) and 19 µM (active), respectively.

Turning to `NCCSCCc1ccccc1`, the concentration at half-maximal activity (AC50) in assay [6] and in [4] was 3.16 µM (inconclusive) each time.

On to `CCN(CCN(C)C)C(=O)C1CCN(S(=O)(=O)c2c(C)noc2/C=C/c2ccccc2F)CC1`, for which the EC50 in [8] was > 350 µM (not active); in assay [9], 21.2 µM (active).

Regarding `Cc1ccc(C[n+]2cccc(-c3ccccc3)c2)c(C)c1`, the AC50 in assay [1] was 4.24 µM (active). Further, the EC50 in [11] is 0.552 µM (active); in [14], 11.9 µM (active).

As for `NC(=O)c1ccc(NC(=O)COC(=O)C2(c3ccccc3F)CCCC2)cc1`, the EC50 was 17.5 µM (active) in assay [10], > 120 µM (not active) in [12] and > 120 µM (not active) in assay [13].

For the compound `N#Cc1ccc(-c2ccc([C@H]3[C@@H](CO)N4C(=O)CN(C(=O)Cc5ccccc5)C[C@@H]34)cc2)cc1`, the concentration at half-maximal activity (AC50) in [7] is 18.1 µM (active).

As for `COc1ccc(F)cc1CSc1nnnn1-c1ccc(O)cc1`, the EC50 in [8] and in assay [9] was > 350 µM (not active) each time.

As for `Clc1c(CSc2nc3ccccc3o2)nc2sccn12`, the results for the EC50 in assay [8] and in [9] were > 350 µM (not active) and 21 µM (active), respectively.

Turning to `COc1cc2c(cc1OC)-c1c/c(=N/c3c(C)cc(C)cc3C)n(C)c(=O)n1CC2`, the AC50 in assay [6] and in [4] was 31.6 µM (inconclusive) throughout.

For the compound `O=C(NNC(=O)c1cccnc1SCc1cccc([N+](=O)[O-])c1)c1ccc(F)cc1`, the AC50 in assay [1] is 7.02 µM (active).

Turning to `CCc1ccc(-c2ccc(C(=O)C(F)(F)F)[nH]2)cc1`, in assay [4], the AC50 was 5.01 µM (inconclusive). The 50% effective concentration (EC50) in assay [17] was 0.19 µM (active).

On to `C[C@@H]1CN([C@@H](C)CO)C(=O)c2cccc(NC(=O)c3cnccn3)c2O[C@@H]1CN(C)Cc1ccc(C(F)(F)F)cc1`, for which the AC50 in assay [7] was 9.12 µM (active).

As to `CO[C@H]1CN(C)C(=O)c2cc(NC(=O)c3nc4ccccc4s3)ccc2OC[C@H](C)NC[C@@H]1C`, in assay [7], the concentration at half-maximal activity (AC50) is 13.5 µM (active).
